# Laboratory results taken from US8410141B2, “Insecticidal arylpyrrolines” (Bayer Cropscience AG, priority 2009, dated 2013).
# Legend:
# Assay type in all cases: in vivo
# [1] = system: Cucurbit Leaf Beetle (Aulacophora femoralis); assay: Test against cucurbit leaf beetle (Aulacophora femoralis), leaf immersion; conditions: 100 ppm; cucumber leaves immersed; second-instar larvae; after 7 days
# Description: (§1) Unless not mentioned otherwise, the test solutions were prepared as follows:
# (§2) Containing as solvent: Dimethylformamide, 3 parts by weight; and as emulsifier: Polyoxyethylene alkyl phenyl ether, 1 part by weight. To prepare the test solution, 1 part by weight of an active compound is mixed with the above-mentioned amount of solvent containing the above-mentioned amount of emulsifier, and the mixture is diluted with water to the desired concentration.
# Cucumber leaves were immersed in the test solution at the appropriate concentration, and the leaves were dried in air. The leaves were then placed in a plastic cup containing sterilized black soil, and five second-instar larvae of cucurbit leaf beetle were released therein. The plastic cup was placed in a temperature-controlled chamber at 25° C. After 7 days, the number of dead larvae was counted, and thus the insecticidal activity was calculated. An insecticidal activity of 100% means that all beetles were killed, whereas an insecticidal activity of 0% means that no beetle was killed.
# [2] = system: Two-Spotted Spider Mite (Tetranychus urticae); assay: Test against two-spotted spider mite (Tetranychus urticae), spray; conditions: 100 ppm; sprayed on kidney bean; adult mites; after 7 days
# Description: as §1, §2
# 50 to 100 adult two-spotted spider mites were inoculated onto the leaves of kidney beans at the two-true leaf stage, which plant had been cultivated in a pot having a diameter of 6 cm. After one day, test solution at the appropriate concentration was sprayed thereon in a sufficient amount using a spray gun. After the spraying, the plant pot was placed inside a greenhouse, and after 7 days, the acaricidal activity was calculated. An acaricidal activity of 100% means that all mites were killed, whereas an acaricidal activity of 0% means that no mite was killed.
# [3] = system: Tobacco Cutworm (Spodoptera litura) Larvae; assay: Test against tobacco cutworm larvae, root systemicity; conditions: 100 ppm; broccoli seedling roots dipped 3 days; second-instar larvae; after 4 days
# Description: as §1, §2
# The roots of seedling of broccoli at 1.2 leaf stage were dipped into the test solution at the appropriate concentration. After 3 days, the leaves were cut and placed in a petri dish having a diameter of 9 cm. And then five second-instar larvae of tobacco cutworm were released therein. The petri dish was placed in a temperature-controlled room at 25° C. After 4 days, the number of dead larvae was counted, to calculate the insecticidal activity. An insecticidal activity of 100% means that all larvae were killed, whereas an insecticidal activity of 0% means that no larva was killed.
# [4] = system: Tobacco Cutworm (Spodoptera litura) Larvae; assay: Test against tobacco cutworm (Spodoptera litura) larvae, leaf immersion; conditions: 100 ppm; sweet potato leaves immersed; third-instar larvae; after 7 days
# Description: as §1, §2
# The leaves of sweet potato were immersed in the test solution at the appropriate concentration, and the leaves were dried in air. The leaves were then placed in a petri dish having a diameter of 9 cm, and ten third-instar larvae of tobacco cutworm were released therein. The petri dish was placed in a temperature-controlled chamber at 25° C. After 2 days and 4 days sweet potato leaves were additionally added. After 7 days, the number of dead larvae was counted to calculate the insecticidal activity. An insecticidal activity of 100% means that all larvae were killed, whereas an insecticidal activity of 0% means that no larva was killed. In the current test, the results of two petri dishes for each partition were averaged.
# Musca domestica = Musca domestica test; conditions: 100 ppm; sponge with sugar and compound solution; adults; after 2 days
# Description: Solvent: dimethyl sulfoxide
# To produce a suitable preparation of active compound, 10 mg of active compound are dissolved in 0.5 ml solvent, and the concentrate is diluted with water to the desired concentration. Prior to the assay, a piece of kitchen sponge is soaked with a mixture of sugar and compound solution and placed into a container. 10 adults (Musca domestica) are placed into the container and closed with a perforated lid. After 2 days mortality in % is determined. 100% means that all the flies have been killed; 0% means that none of the flies have been killed.
SMILES,insecticidal activity [1],acaricidal activity rate [2],insecticidal activity [3],insecticidal activity [4],mortality (Musca domestica)
N#Cc1cc(C2=NCC(c3ccc(F)c(C(F)(F)F)c3)(C(F)(F)F)C2)ccc1-n1cncn1 (stereo not drawn) [1-4],100%,100%,100%,100%,
N#Cc1cc(C2=NCC(c3cc(Cl)c(Br)c(Cl)c3)(C(F)(F)F)C2)ccc1-n1cncn1 (stereo not drawn) [1-15],100%,100%,,100%,
N#Cc1cc(C2=NCC(c3cccc(C(F)(F)F)c3F)(C(F)(F)F)C2)ccc1-n1cncn1 (stereo not drawn) [1-19],100%,100%,,100%,90%
FC(F)(F)C1(c2cc(Cl)c(Cl)c(Cl)c2)CN=C(c2ccc(-n3cncn3)cc2)C1 (stereo not drawn) [1-27],100%,100%,,100%,
FC(F)(F)C1(c2cc(Cl)c(Cl)c(Cl)c2)CN=C(c2ccc(-n3cncn3)c(Br)c2)C1 (stereo not drawn) [1-31],100%,100%,,100%,
FC(F)(F)c1cc(C2=NCC(c3cc(Cl)c(Cl)c(Cl)c3)(C(F)(F)F)C2)ccc1-n1cncn1 (stereo not drawn) [1-34],100%,,,100%,
O=[N+]([O-])c1cc(C2=NCC(c3cc(Cl)c(Cl)c(Cl)c3)(C(F)(F)F)C2)ccc1-n1cncn1 (stereo not drawn) [1-35],100%,100%,,100%,
N#Cc1cc(C2=NCC(c3cc(C(F)(F)F)cc(Cl)n3)(C(F)(F)F)C2)ccc1-n1cncn1 (stereo not drawn) [1-84],100%,100%,100%,100%,
FC(F)(F)C1(c2cc(Cl)c(Cl)c(Cl)c2)CN=C(c2ccc(-n3cncn3)nc2)C1 (stereo not drawn) [1-110],100%,100%,,100%,
N#Cc1cc(C2=NCC(c3ccnc(C(F)(F)C(F)(F)F)c3)(C(F)(F)F)C2)ccc1-n1cncn1 (stereo not drawn) [1-156],100%,100%,,100%,
Cc1ccc(C2(C(F)(F)F)CN=C(c3ccc(-n4cncn4)c(C#N)c3)C2)cc1[N+](=O)[O-] (stereo not drawn) [1-174],,100%,,,
Cc1cc([N+](=O)[O-])cc(C2(C(F)(F)F)CN=C(c3ccc(-n4cncn4)c(C#N)c3)C2)c1 (stereo not drawn) [1-180],,100%,,,
N#Cc1cc(C2=NCC(c3cncc(C(F)(F)F)c3)(C(F)(F)F)C2)ccc1-n1cncn1 (stereo not drawn) [1-481],100%,,,100%,
N#Cc1cc(C2=NCC(c3cc(C(F)(F)F)ccc3F)(C(F)(F)F)C2)ccc1-n1cncn1 (stereo not drawn) [1-482],100%,100%,,100%,
N#Cc1cc(C2=NCC(c3ccnc(Cl)c3)(C(F)(F)F)C2)ccc1-n1cncn1 (stereo not drawn) [1-484],100%,100%,,,
N#Cc1cc(C2=NCC(c3cc(Cl)cc(Cl)c3Cl)(C(F)(F)F)C2)ccc1-n1cncn1 (stereo not drawn) [1-488],100%,100%,,100%,
FC(F)(F)C1(c2cc(Cl)nc(Cl)c2)CN=C(c2cnc(-n3cncn3)c(Cl)c2)C1 (stereo not drawn) [1-490],100%,,,100%,
FC(F)(F)c1cc(C(F)(F)F)cc(C2(C(F)(F)F)CN=C(c3cnc(-n4cncn4)c(Cl)c3)C2)c1 (stereo not drawn) [1-491],100%,,,100%,
N#Cc1cc(C2=NCC(c3cc(Cl)nc(C(F)(F)F)c3)(C(F)(F)F)C2)ccc1-n1cncn1 (stereo not drawn) [1-492],100%,100%,100%,100%,

SMILES,insecticidal activity [1],acaricidal activity rate [2],insecticidal activity [3],insecticidal activity [4],mortality (Musca domestica)
N#Cc1cc(C2=NCC(c3cc(C(F)(F)F)cc(C(F)(F)F)c3)(C(F)(F)F)C2)cnc1-n1cncn1 (stereo not drawn) [1-494],100%,,,100%,
N#Cc1cc(C2=NCC(c3cc(Br)c4c(c3)OC(F)(F)O4)(C(F)(F)F)C2)ccc1-n1cncn1 (stereo not drawn) [1-496],100%,100%,,100%,
N#Cc1cc(C2=NCC(c3cc(OC(F)F)cc(C(F)(F)F)c3)(C(F)(F)F)C2)ccc1-n1cncn1 (stereo not drawn) [1-497],100%,,100%,100%,
N#Cc1cc(C2=NCC(c3cc(Cl)cc(Cl)c3)(C(F)(F)Cl)C2)ccc1-n1cncn1 (stereo not drawn) [1-506],100%,100%,,100%,
Cc1cc(C2=NCC(c3cc(Cl)c(Cl)c(Cl)c3)(C(F)(F)F)C2)ccc1CN (stereo not drawn) [2-76],,,,100%,
CC(=O)NCc1ccc(C2=NCC(c3cc(Cl)c(Cl)c(Cl)c3)(C(F)(F)F)C2)cc1 (stereo not drawn) [2-168],100%,100%,,100%,
CCC(=O)NCc1ccc(C2=NCC(c3cc(Cl)c(Cl)c(Cl)c3)(C(F)(F)F)C2)cc1 (stereo not drawn) [2-169],100%,100%,,100%,
O=C(CC(F)(F)F)NCc1ccc(C2=NCC(c3cc(Cl)c(Cl)c(Cl)c3)(C(F)(F)F)C2)cc1 (stereo not drawn) [2-170],100%,100%,,100%,
Cc1cc(C2=NCC(c3cc(C(F)(F)F)cc(C(F)(F)F)c3)(C(F)(F)F)C2)ccc1CN (stereo not drawn) [2-547],,,,100%,
Cc1cc(C2=NCC(c3cc(C(F)(F)F)cc(C(F)(F)F)c3)(C(F)(F)F)C2)ccc1CNC(=O)OC(C)(C)C (stereo not drawn) [2-548],100%,100%,,100%,
CCC(=O)NCc1ccc(C2=NCC(c3cc(C(F)(F)F)cc(C(F)(F)F)c3)(C(F)(F)F)C2)cc1 (stereo not drawn) [2-647],100%,100%,100%,100%,
O=C(CC(F)(F)F)NCc1ccc(C2=NCC(c3cc(C(F)(F)F)cc(C(F)(F)F)c3)(C(F)(F)F)C2)cc1 (stereo not drawn) [2-648],100%,100%,100%,100%,
CCC(=O)NCc1ccc(C2=NCC(c3cc(Cl)nc(Cl)c3)(C(F)(F)F)C2)cc1C(F)(F)F (stereo not drawn) [2-2151],100%,100%,,100%,
CC(=O)NCc1ccc(C2=NCC(c3cc(C(F)(F)F)nc(C(F)(F)F)c3)(C(F)(F)F)C2)cc1Br (stereo not drawn) [2-2732],100%,100%,,100%,
"CCC(=O)NCc1ccc(C2=NCC(c3cc(C(F)(F)F)nc(C(F)(F)F)c3)(C(F)(F)F)C2)cc1Br (stereo not drawn) [2-2733, N-(4-{3-[2,6-bis(trifluoromethyl)pyridin-4-yl]-3-(trifluoromethyl)-3,4-dihydro-2H-pyrrol-5-yl}-2-bromobenzyl)propanamide]",100%,100%,,100%,
CSCC(=O)NCc1ccc(C2=NCC(c3cc(C(F)(F)F)nc(C(F)(F)F)c3)(C(F)(F)F)C2)cc1Br (stereo not drawn) [2-2737],100%,100%,,100%,
CS(=O)(=O)CC(=O)NCc1ccc(C2=NCC(c3cc(C(F)(F)F)nc(C(F)(F)F)c3)(C(F)(F)F)C2)cc1Br (stereo not drawn) [2-2739],100%,100%,,100%,
CCC(=O)NC(C)c1ccc(C2=NCC(c3cc(C(F)(F)F)nc(C(F)(F)F)c3)(C(F)(F)F)C2)cc1 (stereo not drawn) [2-2872],,,100%,100%,
